In PMC11061835, “Elucidating the Mechanism of Metabolism of Cannabichromene by Human Cytochrome P450s” (Journal of Natural Products, 2024):

Columns and labels:
[1] = test system: BV2 microglial cells, stimulated with lipopolysaccharide (LPS); experiment: Arginase 1 ELISA in LPS-stimulated BV2 cells; type: cell-based, mouse; conditions: 0.1, 1.0, 2.5, 5.0 μM
Experimental: (§1) BV2 cells were a gift from Dr. Bob McCusker, University of Illinois. They were cultured and maintained at 37 °C in a humidified atmosphere of 95% air and 5% CO2 in high-glucose Dulbecco’s modified Eagle’s (DMEM) medium (Cat No. 10-013-CV, Corning Life Sciences), supplemented with 5% heat-inactivated fetal bovine serum (FBS), streptomycin (100 μg/mL), and penicillin (100 units/mL). Stocks of all the minor cannabinoids were made in ethanol and stored at −80 °C and diluted as required before cell treatment. A final concentration of ethanol was maintained at 0.1% in the cell culture experiments.
BV-2 cells were plated at a density of 50 000 cells/well in a 24-well plate at 37 °C under controlled conditions. Cells were pretreated with the minor cannabinoids at various concentrations (0.1, 1.0, 2.5, 5.0 μM) for 4 h and then stimulated with LPS for 24 h. The culture medium was removed and saved for the determination of nitric oxide production through Cayman’s Griess assay. IL-6, TNFα, and Arginase 1 production was also determined utilizing collected medium. […] The absorbance was measured at 540 nm using a plate reader (SpectraMax iD5). The quantification was done using a calibration curve that was generated using the sodium nitrite standard obtained from Cayman Chemicals. […]

[2] = test system: BV2 microglial cells, stimulated with lipopolysaccharide (LPS); experiment: IL-6 ELISA in LPS-stimulated BV2 cells; type: cell-based, mouse; conditions: for effect on IL-6 levels: 0.1, 1.0, 2.5, 5.0 μM, LPS-stimulated
Experimental: as §1
(§2) BV-2 cells were plated at a density of 50 000 cells/well in a 24-well plate at 37 °C under controlled conditions. Cells were pretreated with the minor cannabinoids at various concentrations (0.1, 1.0, 2.5, 5.0 μM) for 4 h and then stimulated with LPS for 24 h. The culture medium was removed and saved for the determination of nitric oxide production through Cayman’s Griess assay. IL-6, TNFα, and Arginase 1 production was also determined utilizing collected medium. For the Greiss assay, in a 96-well plate, 100 μL of culture medium was used, and 50 μL of both Greiss reagent-1 and Greiss reagent-2 was added and incubated for 10 min. The absorbance was measured at 540 nm using a plate reader (SpectraMax iD5). The quantification was done using a calibration curve that was generated using the sodium nitrite standard obtained from Cayman Chemicals.
(§3) BV-2 cells were pretreated with the minor cannabinoids as described previously for 4 h in serum media (reduced to 5% FBS). Cells were stimulated with LPS (25 ng/mL in growth media) and allowed to incubate for 24 h. The culture medium was collected, and the concentrations of IL-6 (Cayman Chemicals), TNFα (ThermoFisher Scientific), and arginase 1 (ThermoFisher Scientific) cytokine expression were determined using specific monoclonal antibodies by ELISA kits as per manufacturer’s instructions.

[3] = test system: BV2 microglial cells, stimulated with lipopolysaccharide (LPS); experiment: TNFα ELISA in LPS-stimulated BV2 cells; type: cell-based, mouse; conditions: 0.1, 1.0, 2.5, 5.0 μM
Experimental: as §1, §2, §3

[4] = In vivo metabolism of CBC, mouse blood plasma (LC-MS/MS); parameters: species or system mice; conditions: mice, CBC 20 mg/kg IV or IP, plasma at 0.5 and 2 h
Experimental: CBC was dissolved in ethanol, and an aliquot was then mixed with Tween-80. Ethanol was removed by evaporation. The mixture was then reconstituted with PBS to a 6% final concentration of Tween-80. C 57BL/6J female mice, age 8–10 weeks, were injected with 20 mg/kg CBC or vehicle intravenously (IV, n = 3) via the tail vein or intraperitoneally (IP, n = 3). Blood samples were collected terminally by cardiac puncture into heparin-coated syringes at 0.5 and 2 h after CBC treatment and transferred into tubes. The tubes were then centrifuged, and plasma samples were removed and stored at −80 °C.
200 μL of blood plasma from each sample was taken into a glass tube, and 500 μL of extraction solvent (hexane:ethyl acetate 80:20 v/v) was added. The remaining extraction steps are similar to those used for CBC metabolite extraction from CYPs as mentioned earlier.
Samples were analyzed with the 5500 QTRAP LC/MS/MS system (Sciex, Framingham, MA) in the Metabolomics Lab of Roy J. Carver Biotechnology Center, University of Illinois at Urbana–Champaign. Software Analyst 1.7.1 was used for data acquisition and analysis. The 1200 series HPLC system (Agilent Technologies, Santa Clara, CA) includes a degasser, an autosampler, and a binary pump. The LC separation was performed on a Phenomenex Gemini C6-phenyl column (2 × 100 mm, 3 μm) with mobile phase A (0.1% formic acid in water) and mobile phase B (0.1% formic acid in acetonitrile). The flow rate was 0.2 mL/min. The linear gradient was as follows: 0–2 min, 95% A; 10 min, 50% A; 20–25 min, 0% A; 25.1–31 min, 95% A. The autosampler was set at 10 °C. The injection volume was 5 μL. Mass spectra were acquired under positive electrospray ionization (ESI) with the ion spray voltage of +5000 V. The source temperature was 400 °C. The curtain gas, ion source gas 1, and ion source gas 2 were 325, 65, and 55 psi, respectively. Multiple reaction monitoring (MRM) was used for quantitation: CBC m/z 315.1 → m/z 135.0; 1-acetoxy-6′,7′-dihydroxy-CBC (JM-I-73) m/z 349.1→ m/z 193.0; 1″-hydroxy-CBC (JM-I-66) m/z 331.1→ m/z 275.1; 6′,7′-epoxy-CBC (JM-I-27) m/z 331.1→ m/z 193.0; 7′,10′-ene-6′-hydroxy-CBC (JM-I-30) m/z 331.1→ m/z 193.0; 8′-hydroxy-CBC (JM-I-32) […]→ m/z 77.0. Internal standard EET-EA-d11 was monitored at m/z 375.2→ m/z 357.1.

CYP2D6 = CYP2D6 (Homo sapiens, UniProt P10635); experiment: CBC metabolism by CYP2D6; type: in vitro ADME; parameters: His-tag; made in house; host or cells: E. coli DH-5α with pTGro7 plasmid (CYP)
Experimental: (§4) To study the kinetics of CBC metabolism, concentration dependent metabolism of CBC was carried out in the presence of various CYPs using the following procedure. CYP2J2, CYP2C8, CYP2D6, CYP2C9, and CYP3A4 (final concentration 0.5 μM) were initially dissolved in lipid containing POPC:POPS (8:2 v/v) followed by addition of CPR (final concentration 0.6 μM) in 0.1 M potassium phosphate buffer (pH 7.4). CBC (5–80 μM) was added and incubated at 37 °C for 10 min. The reaction was triggered by NADPH and extracted using the exact sample protocol as mentioned in the HLM section.
(§5) Samples were analyzed with the 5500 QTRAP LC/MS/MS system (Sciex, Framingham, MA) in the Metabolomics Lab of Roy J. Carver Biotechnology Center, University of Illinois at Urbana–Champaign. Software Analyst 1.7.1 was used for data acquisition and analysis. The 1200 series HPLC system (Agilent Technologies, Santa Clara, CA) includes a degasser, an autosampler, and a binary pump. […] Multiple reaction monitoring (MRM) was used for quantitation: CBC m/z 315.1 → m/z 135.0; 1-acetoxy-6′,7′-dihydroxy-CBC (JM-I-73) m/z 349.1→ m/z 193.0; 1″-hydroxy-CBC (JM-I-66) m/z 331.1→ m/z 275.1; 6′,7′-epoxy-CBC (JM-I-27) m/z 331.1→ m/z 193.0; 7′,10′-ene-6′-hydroxy-CBC (JM-I-30) m/z 331.1→ m/z 193.0; 8′-hydroxy-CBC (JM-I-32) […]→ m/z 77.0. Internal standard EET-EA-d11 was monitored at m/z 375.2→ m/z 357.1.

CYP3A4 = CYP3A4 (Homo sapiens, UniProt P08684); experiment: CBC metabolism by CYP3A4; type: in vitro ADME; parameters: His-tag; made in house; host or cells: E. coli DH-5α with pTGro7 plasmid (CYP)
Experimental: as §4, §5

[5] = test system: recombinant CYPs: CYP2J2, CYP2C8, CYP2C9, CYP2D6, and CYP3A4; experiment: CBC metabolism by recombinant CYPs (all five); type: in vitro ADME, human; conditions: lipid-constituted system with CPR, NADPH
Experimental: as §4, §5

[6] = test system: BV2 microglial cells, stimulated with lipopolysaccharide (LPS); experiment: Nitric oxide determination (Griess assay) in LPS-stimulated BV2 cells; type: cell-based, mouse; conditions: for effect on NO release/production: 0.1, 1.0, 2.5, 5.0 μM, vs cells treated with LPS only
Experimental: as §1
First, cell viability of BV2 cells was assessed after treatment with cannabinoids, at various concentrations (0.1, 1.0, 2.5, 5.0 μM), utilizing Cayman’s MTT assay. […] Once viability was determined, we measured the production of pro-inflammatory markers such as nitric oxide (NO), interleukin 6 (IL-6), tumor necrosis factor alpha (TNFα), and arginase 1 (Arg1) after BV2 cells were treated with minor cannabinoids and then stimulated with lipopolysaccharide (LPS) to evoke an inflammatory response.
as §2

TRPV1 = test system: TRPV1; parameters: method as in PMID 30697147; conditions: read-out: agonism toward TRPV1; cited from earlier work
TRPV2 = test system: TRPV2; parameters: method as in PMID 30697147; conditions: read-out: agonism toward TRPV2; cited from earlier work

Chain of CYP3A4 (P08684 whole entry): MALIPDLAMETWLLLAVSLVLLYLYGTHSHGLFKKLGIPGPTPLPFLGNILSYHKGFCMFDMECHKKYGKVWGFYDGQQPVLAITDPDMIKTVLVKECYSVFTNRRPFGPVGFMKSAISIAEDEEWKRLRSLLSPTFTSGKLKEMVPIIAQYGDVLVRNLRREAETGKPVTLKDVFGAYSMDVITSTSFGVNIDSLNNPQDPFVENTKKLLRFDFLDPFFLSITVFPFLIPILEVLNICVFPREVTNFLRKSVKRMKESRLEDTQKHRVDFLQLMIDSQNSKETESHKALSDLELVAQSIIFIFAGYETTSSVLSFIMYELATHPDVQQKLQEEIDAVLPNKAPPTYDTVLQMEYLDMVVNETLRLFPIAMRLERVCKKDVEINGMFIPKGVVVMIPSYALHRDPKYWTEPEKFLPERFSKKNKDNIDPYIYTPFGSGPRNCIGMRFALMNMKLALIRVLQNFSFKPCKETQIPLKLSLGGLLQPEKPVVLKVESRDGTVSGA
Chain of CYP3A4 (P16435 whole entry partner): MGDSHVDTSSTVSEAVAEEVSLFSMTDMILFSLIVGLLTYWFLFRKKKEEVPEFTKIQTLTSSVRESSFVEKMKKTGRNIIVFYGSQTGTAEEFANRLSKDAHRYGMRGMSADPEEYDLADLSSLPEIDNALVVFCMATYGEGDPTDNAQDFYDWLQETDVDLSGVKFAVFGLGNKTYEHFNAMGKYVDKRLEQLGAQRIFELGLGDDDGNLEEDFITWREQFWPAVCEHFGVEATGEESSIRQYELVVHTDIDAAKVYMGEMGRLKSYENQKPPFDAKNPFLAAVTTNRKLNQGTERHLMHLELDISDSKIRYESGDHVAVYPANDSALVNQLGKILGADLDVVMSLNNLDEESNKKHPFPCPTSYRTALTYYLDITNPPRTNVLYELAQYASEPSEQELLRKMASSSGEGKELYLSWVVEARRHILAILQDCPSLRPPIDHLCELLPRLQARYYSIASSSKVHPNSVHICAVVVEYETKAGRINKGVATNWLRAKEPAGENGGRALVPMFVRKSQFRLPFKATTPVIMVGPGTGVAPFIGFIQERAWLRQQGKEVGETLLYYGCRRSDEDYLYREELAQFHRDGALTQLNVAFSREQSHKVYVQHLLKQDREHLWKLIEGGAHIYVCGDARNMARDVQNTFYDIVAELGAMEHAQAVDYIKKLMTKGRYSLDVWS
Chain of CYP2D6 (P10635 whole entry): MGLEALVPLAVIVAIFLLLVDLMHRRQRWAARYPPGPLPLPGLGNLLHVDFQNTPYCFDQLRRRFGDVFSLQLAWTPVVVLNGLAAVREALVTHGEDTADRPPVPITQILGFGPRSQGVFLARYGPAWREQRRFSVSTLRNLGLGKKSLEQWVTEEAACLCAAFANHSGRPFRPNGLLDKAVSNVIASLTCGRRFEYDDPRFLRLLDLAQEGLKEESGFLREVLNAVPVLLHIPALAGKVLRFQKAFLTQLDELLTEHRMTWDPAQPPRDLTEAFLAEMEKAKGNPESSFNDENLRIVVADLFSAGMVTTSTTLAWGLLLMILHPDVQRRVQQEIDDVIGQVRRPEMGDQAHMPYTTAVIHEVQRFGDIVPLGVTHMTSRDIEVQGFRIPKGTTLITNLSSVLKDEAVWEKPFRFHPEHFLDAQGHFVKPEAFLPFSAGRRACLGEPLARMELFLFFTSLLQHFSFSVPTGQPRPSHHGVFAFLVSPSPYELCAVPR
Chain of CYP2D6 (P16435 whole entry partner): as the sequence (P16435 whole entry partner) above

| SMILES | effect on Arg-1 production [1] | effect on IL-6 levels [2] | effect on TNFα production [3] | detection as product of CBC metabolism in mouse plasma [4] | formation as CBC metabolite (CYP3A4) | effect on NO release/production [6] | EC50 (TRPV1) [µM] | EC50 (TRPV2) [µM] | other results |
| --- | --- | --- | --- | --- | --- | --- | --- | --- | --- |
| CCCCC(O)c1cc(O)c2c(c1)OC(C)(CCC=C(C)C)C=C2 (centres unmarked) [1″-hydroxy-CBC] | increases in a concentration dependent manner | Concentration dependent reduction | Concentration dependent reduction | not detected | not detected |  |  |  | detection as CBC metabolite (CYP2D6): not detected |
| CCCCCc1cc(O)c2c(c1)OC(C)(CCC(O)C(C)(C)O)C=C2 (centres unmarked) [6′,7′-dihydroxy-CBC] |  | Concentration dependent reduction | Concentration dependent reduction | detected |  | concentration-dependent reduction |  |  | detection as CBC metabolite in the presence of recombinant CYPs [5]: not detected; reduction of IL-6 level ([2]; 5 μM, LPS-stimulated BV2 cells): ~50%; reduction of NO level ([6]; 5 μM, LPS-stimulated BV2 cells): ~50% |
| CCCCCc1cc(O)c2c(c1)OC(C)(CCC1OC1(C)C)C=C2 (centres unmarked) [6′,7′-epoxy-CBC] | increases in a concentration dependent manner |  |  | detected | exclusively produces |  |  |  |  |
| C=C(C)C(O)CCC1(C)C=Cc2c(O)cc(CCCCC)cc2O1 (centres unmarked) [7′,10′-ene-6′-hydroxy-CBC] |  | Concentration dependent reduction | Concentration dependent reduction |  |  | concentration-dependent reduction |  |  |  |
| C=C(C)[C@@H]1CCC(C)=C[C@H]1c1c(O)cc(CCCCC)cc1O [CBD, cannabidiol] |  |  |  |  |  |  | ~40 | ~40 |  |
| CCCCCc1cc(O)c(C/C=C(\C)CCC=C(C)C)c(O)c1 [CBG, cannabigerol] |  |  |  |  |  |  | ~33 | ~73 |  |
